# From US8119624B2, “Fused phenyl amido heterocyclic compounds” (Pfizer Inc., priority 2006, dated 2012)
# pEC50: −log10 of the molar value.
# Molecular target: T1, Full-length glucokinase (beta cell isoform) (Homo sapiens, UniProt P35557)
# T1 construct: Full-length glucokinase (beta cell isoform) was His-tagged at N-terminus; His tag (N); made in house
# T1 sequence (P35557 1-465): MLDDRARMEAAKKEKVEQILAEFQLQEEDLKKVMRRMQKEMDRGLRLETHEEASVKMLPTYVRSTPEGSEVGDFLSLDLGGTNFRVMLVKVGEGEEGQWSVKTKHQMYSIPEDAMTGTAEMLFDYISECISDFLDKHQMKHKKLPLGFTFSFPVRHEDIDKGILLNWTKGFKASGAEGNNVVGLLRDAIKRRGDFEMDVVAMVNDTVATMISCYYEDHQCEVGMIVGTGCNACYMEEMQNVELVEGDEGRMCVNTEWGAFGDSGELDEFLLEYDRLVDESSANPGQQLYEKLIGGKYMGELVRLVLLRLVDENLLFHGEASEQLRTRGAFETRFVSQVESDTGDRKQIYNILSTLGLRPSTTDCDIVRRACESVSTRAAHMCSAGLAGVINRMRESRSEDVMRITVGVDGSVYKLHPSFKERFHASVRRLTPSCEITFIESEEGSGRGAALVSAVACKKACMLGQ
# Assay: Glucokinase biochemical assay (PK/LDH-coupled, NADH depletion at 340 nm): % activation, EC50, % max activation
# Details: 5 mM glucose; for activation at 10 µM: 10 uM compound, % Activation=(Va/Vo−1)×100, read-out: % Activation at 10 uM; for pEC50: GK activation, read-out: EC50; for Emax: fitted maximum activation, read-out: % Max Activation
# Experimental: Full-length glucokinase (beta cell isoform) was His-tagged at N-terminus and purified by a Ni column followed by size exclusion chromatography. Glucose was obtained from Calbiochem, and other reagents were from Sigma.
# All assays were performed in a Corning 96-well plate using Spectramax PLUS spectrophotometer (Molecular Devices) at room temperature. The final assay volume was 100 uL. The buffer conditions used in this assay were as follows: 50 mM HEPES, 5 mM glucose, 1 mM ATP, 2 mM MgCl2, 0.7mM NADH, 2 mM DTT, 1 Unit/mL PK/LDH, 0.2 mM phosphoenolpyruvate, 25 mM KCl. Tested compound in DMSO solution was added to the buffer and mixed well by a plate shaker for 1 minute. The final concentration of DMSO introduced into the assay was 1%.
# Glucokinase was added to the buffer mixture to initiate the reaction in the presence and absence of compound. Reaction was monitored by absorbance at 340nm due to the depletion of NADH. The initial reaction velocity was measured by the slope of a linear time course of 200-900 sec.
# The percentage of activation was calculated by the following equation: % Activation=(Va/Vo−1)×100;
# wherein each of Va and Vo is defined as the initial reaction velocity in the presence and absence of the tested compound, respectively.
# The GK activities were measured as a function of compound concentrations.
Compound,activation at 10 µM,pEC50,Emax
"CN(C)C1CN(C(=O)c2ccc(Oc3cc(C(=O)Nc4ccn(C)n4)cc4c3CC(C)(C)O4)c(F)c2)C1 [Example 44, 4-[4-(3-Dimethylamino-azetidine-1-carbonyl)-2-fluoro-phenoxy]-2,2-dimethyl-2,3-dihydro-benzofuran-6-carboxylic acid(1-methyl-1H-pyrazol-3-yl)-amide]",137%,6.24,146%
"Cn1ccc(NC(=O)c2cc(Oc3ccc(C(=O)N4CCOCC4)c(F)c3)c3c(c2)OC(C)(C)C3)n1 [Example 51, 4-[3-Fluoro-4-(morpholine-4-carbonyl)-phenoxy]-2,2-dimethyl-2,3-dihydro-benzofuran-6-carboxylic acid(1-methyl-1H-pyrazol-3-yl)-amide]",129%,6.60,130%
"CN(C)C(=O)c1ccc(Oc2cc(C(=O)Nc3ccn(C)n3)cc3c2CC(C)(C)O3)cn1 [Example 161, 5-[2,2-Dimethyl-6-(1-methyl-1H-pyrazol-3-ylcarbamoyl)-2,3-dihydro-benzofuran-4-yloxy]-pyridine-2-carboxylic acid dimethylamide]",191%,6.76,143%
"Cn1ncc(NC(=O)c2cc(Oc3ccc(S(C)(=O)=O)cc3Cl)c3c(c2)OC(C)(C)C3)n1 [Example 119, 4-(2-Chloro-4-methanesulfonyl-phenoxy)-2,2-dimethyl-2,3-dihydro-benzofuran-6-carboxylic acid (2-methyl-2H-[1,2,3]triazol-4-yl)-amide]",242%,6.37,223%
"Cn1ncc(NC(=O)c2cc(Oc3ccc(C(=O)N4CCC4)nc3)c3c(c2)OC(C)(C)C3)n1 [Example 169, 4-[6-(Azetidine-1-carbonyl)-pyridin-3-yloxy]-2,2-dimethyl-2,3-dihydro-benzofuran-6-carboxylic acid (2-methyl-2H-[1,2,3]triazol-4-yl)-amide]",125%,7.25,141%
"Cc1ccc(C(=O)COc2cc(C(=O)Nc3ccn(C)n3)cc3c2CC(C)(C)O3)cn1 [Example 103, 2,2-Dimethyl-4-[2-(6-methyl-pyridin-3-yl)-2-oxo-ethoxy]-2,3-dihydro-benzofuran-6-carboxylic acid (1-methyl-1H-pyrazol-3-yl)-amide]",78.9%,5.33,94%

# The next lines start with the values.
activation at 10 µM,pEC50,Emax,Compound
130%,5.96,149%,"Cn1ccc(NC(=O)c2cc(Oc3cccc(S(C)(=O)=O)c3)c3c(c2)OC(C)(C)C3)n1 [Example 36, 4-(3-Methanesulfonyl-phenoxy)-2,2-dimethyl-2,3-dihydro-benzofuran-6-carboxylic acid(1-methyl-1H-pyrazol-3-yl)-amide]"
137%,7.43,118%,"CCS(=O)(=O)c1ccc(Oc2cc(C(=O)Nc3ccc(C)cn3)cc3c2CC(C)(C)O3)cc1 [Example 126, 4-(4-Ethanesulfonyl-phenoxy)-2,2-dimethyl-2,3-dihydro-benzofuran-6-carboxylic acid (5-methyl-pyridin-2-yl)-amide]"
112%,5.96,112%,"CCc1nnc(NC(=O)c2cc(Oc3ccc(S(C)(=O)=O)cc3)c3c(c2)OC(C)(C)C3)s1 [Example 27, 4-(4-Methanesulfonyl-phenoxy)-2,2-dimethyl-2,3-dihydro-benzofuran-6-carboxylic acid(5-ethyl-[1,3,4]thiadiazol-2-yl)-amide]"
145%,6.46,140%,"Cc1ccc(NC(=O)c2cc(Oc3ccc(S(C)(=O)=O)cc3)c3c(c2)OC(C)(C)C3)nc1 [Example 3, 4-(4-Methanesulfonyl-phenoxy)-2,2-dimethyl-2,3-dihydrobenzofuran-6-carboxylic acid(5-methyl-pyridin-2-yl)-amide]"
